Target: T1, LRRK2 (Mus musculus, UniProt Q5S006)
T1 construct: from tissue; host or cells: mouse brain
Test: Drug pulldown with immobilized indol ligand 91 and identification of LRRK2 by LC-MS/MS
Format: binding
Conditions: ligand covalently attached to Sepharose beads, mouse brain lysate, SDS elution, SDS-PAGE, twelve LRRK2 peptides identified
Method: Proteins binding to immobilized indol ligand 91 were identified using a chemical proteomics procedure. Binding proteins were purified on a resin to which indol ligand 91 was covalently attached. Bound proteins were eluted and subsequently separated by SDS-Polyacrylamide gel elecrophoresis (see FIG. 2), suitable gel bands were cut out and proteins were analyzed by LC-MS/MS mass spectrometry.
NHS-activated Sepharose 4 Fast Flow (Amersham Biosciences, 17-0906-01) was equilibrated with anhydrous DMSO (Dimethylsulfoxid, Fluka, 41648, H20<=0.005%). 1 ml of settled beads were placed in a 15 ml Falcon tube, compound stock solution (usually 100 mM in DMF or DMSO) was added (final conc. 0.2-2 μmol/ml beads) as well as 15 μl of TEA. Beads were incubated at room temperature in darkness on an end-over-end shaker (Roto Shake Genie, Scientific Industries Inc.) for 16-20 hours. Coupling efficiency was determined by HPLC. […]
Mouse brain tissue was homogenized in a Potter S homogenizer (5 ml per brain): 50 mM Tris-HCl, 1% CHAPSO, 5% glycerol, 150 mM NaCl, 1.5 mM MgCl2, 25 mM NaF, 1 mM sodium vanadate, 1 mM DTT, pH 7.5. […] The supernatant was transferred again to a fresh 50 ml falcon tube, the protein concentration was determined by a Bradford assay (BioRad) and samples containing 50 mg of protein per aliquot were prepared. […]

T1 sequence (Q5S006 whole entry V777I/K863N/C925Y/E1011G/E1190G/E1882G/Q2178N): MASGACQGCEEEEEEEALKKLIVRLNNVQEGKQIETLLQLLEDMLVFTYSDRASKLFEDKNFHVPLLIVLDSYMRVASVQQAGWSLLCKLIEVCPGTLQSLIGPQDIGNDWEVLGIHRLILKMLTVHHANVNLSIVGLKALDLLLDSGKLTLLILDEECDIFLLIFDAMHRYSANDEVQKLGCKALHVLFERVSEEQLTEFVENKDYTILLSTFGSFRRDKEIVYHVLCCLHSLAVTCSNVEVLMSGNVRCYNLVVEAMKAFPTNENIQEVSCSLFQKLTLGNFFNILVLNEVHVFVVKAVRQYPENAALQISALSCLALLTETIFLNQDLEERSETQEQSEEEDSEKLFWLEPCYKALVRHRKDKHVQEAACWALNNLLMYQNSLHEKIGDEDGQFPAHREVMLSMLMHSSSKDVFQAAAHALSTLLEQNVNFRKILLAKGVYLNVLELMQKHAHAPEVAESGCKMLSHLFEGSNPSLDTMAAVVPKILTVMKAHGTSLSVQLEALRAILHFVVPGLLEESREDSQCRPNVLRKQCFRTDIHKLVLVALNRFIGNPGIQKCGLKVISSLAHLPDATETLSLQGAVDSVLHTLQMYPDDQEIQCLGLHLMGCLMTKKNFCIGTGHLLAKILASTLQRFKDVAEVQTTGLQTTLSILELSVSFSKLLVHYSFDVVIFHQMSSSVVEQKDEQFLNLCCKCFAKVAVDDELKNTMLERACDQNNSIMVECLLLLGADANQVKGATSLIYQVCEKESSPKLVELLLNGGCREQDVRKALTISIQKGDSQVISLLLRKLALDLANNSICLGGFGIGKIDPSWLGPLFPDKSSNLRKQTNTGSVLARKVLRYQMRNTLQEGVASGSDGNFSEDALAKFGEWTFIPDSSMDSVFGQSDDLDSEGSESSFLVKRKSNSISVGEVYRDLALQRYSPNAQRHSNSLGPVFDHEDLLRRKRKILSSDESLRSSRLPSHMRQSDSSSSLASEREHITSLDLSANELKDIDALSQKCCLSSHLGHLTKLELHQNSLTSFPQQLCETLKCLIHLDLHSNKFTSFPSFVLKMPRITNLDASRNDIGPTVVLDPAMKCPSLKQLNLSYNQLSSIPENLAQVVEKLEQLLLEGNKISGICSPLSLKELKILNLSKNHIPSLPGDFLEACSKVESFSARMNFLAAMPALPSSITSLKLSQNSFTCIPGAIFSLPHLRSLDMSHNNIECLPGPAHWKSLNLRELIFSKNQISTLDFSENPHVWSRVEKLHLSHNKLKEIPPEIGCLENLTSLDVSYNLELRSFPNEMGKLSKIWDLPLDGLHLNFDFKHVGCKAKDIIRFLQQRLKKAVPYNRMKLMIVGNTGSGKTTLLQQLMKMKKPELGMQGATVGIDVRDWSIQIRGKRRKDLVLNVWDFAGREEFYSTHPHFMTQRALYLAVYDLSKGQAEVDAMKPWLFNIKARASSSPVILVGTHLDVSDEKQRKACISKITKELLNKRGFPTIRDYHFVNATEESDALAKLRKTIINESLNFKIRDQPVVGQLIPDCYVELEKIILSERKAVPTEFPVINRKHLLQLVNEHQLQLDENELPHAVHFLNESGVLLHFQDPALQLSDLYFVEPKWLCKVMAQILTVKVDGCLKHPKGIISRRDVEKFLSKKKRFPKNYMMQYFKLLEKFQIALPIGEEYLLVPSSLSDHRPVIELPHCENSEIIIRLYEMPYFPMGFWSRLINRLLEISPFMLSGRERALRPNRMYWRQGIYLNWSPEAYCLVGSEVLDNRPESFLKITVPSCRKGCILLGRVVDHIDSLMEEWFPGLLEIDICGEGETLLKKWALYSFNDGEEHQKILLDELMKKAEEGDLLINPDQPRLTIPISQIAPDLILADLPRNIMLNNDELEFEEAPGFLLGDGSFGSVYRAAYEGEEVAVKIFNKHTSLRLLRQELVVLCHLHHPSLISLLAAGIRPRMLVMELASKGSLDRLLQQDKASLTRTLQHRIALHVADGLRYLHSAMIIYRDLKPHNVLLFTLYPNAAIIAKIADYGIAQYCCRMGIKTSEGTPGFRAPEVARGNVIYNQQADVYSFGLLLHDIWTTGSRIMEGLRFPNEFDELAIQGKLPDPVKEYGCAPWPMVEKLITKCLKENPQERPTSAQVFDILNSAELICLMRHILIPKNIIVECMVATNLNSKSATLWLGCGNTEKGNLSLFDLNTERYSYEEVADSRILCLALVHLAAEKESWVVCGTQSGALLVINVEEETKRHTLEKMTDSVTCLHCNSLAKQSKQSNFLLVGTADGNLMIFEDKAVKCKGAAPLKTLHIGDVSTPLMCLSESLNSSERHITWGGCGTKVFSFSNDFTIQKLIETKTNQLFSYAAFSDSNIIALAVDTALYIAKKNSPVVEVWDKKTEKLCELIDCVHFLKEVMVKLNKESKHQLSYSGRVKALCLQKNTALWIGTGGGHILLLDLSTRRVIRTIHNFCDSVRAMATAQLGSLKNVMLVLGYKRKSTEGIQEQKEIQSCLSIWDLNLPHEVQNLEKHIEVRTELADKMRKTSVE

Cc1[nH]c(/C=C2\C(=O)Nc3ccc(F)cc32)c(C)c1C(=O)NCCCN [indol ligand 91, 5-[5-Fluoro-2-oxo-1,2-dihydro-indol-(3Z)-ylidenemethyl]-2,4-dimethyl-1H-pyrrole-3-carboxylic acid (3-amino-propyl)-amide]
enrichment/identification of LRRK2 bound to the immobilized ligand: can be used to enrich and characterize LRRK2 from mouse brain lysates
